One data set concerns the target T1, Kv 1.5-potassium channel (Homo sapiens, UniProt P22460).
T1 construct: expressed in transfected cells
Kind of data set: In-vitro Kv 1.5-potassium channel-blocking effect (Rb+ outflow from CHO cells, atomic absorption spectroscopy). Format: cell-based. As to conditions: CHO cells stably expressing Kv 1.5, read-out: IC50 (Kv1.5-potassium channel-blocking effect, concentration of half-maximum inhibition). The method, then:
1. In-Vitro Investigation of the Kv 1.5-Potassium Channel-Blocking Effect of the Substances
In this test model, a cell line of egg cells of the Chinese hamster (=“Chinese hamster oocytes”, “CHO”) is used which originates from a single cell and stably expresses the Kv 1.5-channel. By incubation overnight in a nutrient medium containing RbCl or a “loading buffer” (all values in mM: RbCl 5, NaCl 140, CaCl2 2, MgSO4 1, HEPES buffer 10, glucose 5) the aforementioned oocytes are loaded with Rb^+ under the influence of Na^+/K^+-ATPase. Thereafter, a portion of the oocytes is incubated as a reference standard in the absence of an inhibitor, while another portion of the oocytes is incubated in the presence of the respective inhibitory test substance of Formula I. Then the oocytes are depolarized by increasing the extracellular potassium-ion concentration, which causes the Kv 1.5-potassium channels of the oocytes to open. In the absence of an inhibitor, the Rb^+ ions flow through the Kv 1.5-potassium channels into the liquid surrounding them. In the presence of an inhibitory test substance of Formula I, on the other hand, the Rb^+ ions remain locked within the oocytes. The extent of the Kv 1.5-potassium channel-blocking effect of the test substances of Formula I is determined by measuring the Rb^+ ion concentration in the liquid surrounding them by means of atomic absorption spectroscopy against a reference standard.
Chinese hamster oocytes (see above) were cultivated in a known, RbCl-containing nutrient medium for CHO-cells and placed in the sample wells of a 96-sample capacity sample plate (“96 well plate”). The oocytes were allowed to grow overnight in order to obtain monolayers of the oocytes. Then the nutrient medium was pipetted off, and each sample well was washed three times with 100 μl portions of a preincubation buffer of low potassium-ion concentration (all values in mM: KCl 5, NaCl 140, CaCl2 2, MgSO4 1, HEPES buffer 10, glucose 5). Then 50 μl of a solution of the respective test substance (stock solution in DMSO, dilution with preincubation buffer, final concentration in the test batch 10 μM) or of the solvent (as negative controls) was added to each sample well and incubated for 10 min. in each case at room temperature. Then 50 μl of a stimulation buffer with elevated potassium-ion concentration (KCl 145 mM, NaCl 0 mM, otherwise as preincubation buffer) was added to each sample well and the samples were then incubated for a further 10 min. at room temperature. In each case, 80 μl of the liquid surrounding the oocytes from each sample well was then transferred separately to the sample wells of an analysis sample plate, and the Rb^+ ion concentration in the liquids was determined by atomic absorption spectroscopy. The test substances were each double-tested. The signal section which represented the Kv 1.5 component of the Rb^+ outflow was defined by using as positive control the known potassium channel blocker 4-AP in a high concentration (100×IC50 for the Kv 1.5 channel). This made it possible to determine which portion of the Rb^+ outflow was dependent on the influence of the 4-AP and therefore is to be assigned to the Kv 1.5 channel. For the substances which in the concentration of 10 μM used led to a reduction in the Rb^+ outflow of at least 50%, additional tests were performed with lower concentrations of the test substances in order to be able to determine the half-maximum effective concentration. In each case the concentration of half-maximum inhibition of the test substances of Formula I (IC50) was given as characteristic variable.

A further data set deals with ventricle of guinea pigs. Kind of data set: Functional effectiveness on guinea-pig hearts in vivo (ERP, QT, QRS, systolic blood pressure). Also noted: species or system guinea pig (Dunkin-Hartley). The following applies: 1 min. after 10 μmole/kg i.v.; for QRS / QT / syst. blood pressure (change): guinea pigs; for syst. blood pressure (change): minus effects due to the vehicle, negative values indicate reduction; for ERP: ventricle of guinea pigs, negative values indicate shortening. From the text:
4. Investigation of the Functional Effectiveness of the Substances on Guinea-Pig Hearts in Vivo
In the test model shown below, it was shown that the substances according to the invention at most have slight undesirable proarrhythmic effects on repolarization in the ventricle. To this end, the influence of the compounds of Formula I on the effective refractory period (ERP) and other influencing variables on guinea-pig hearts in vivo were investigated. In this test model, non-selective potassium channel blockers not in accordance with the invention, which also block HERG and/or KvLQT1 channels, result in undesirable prolongation of the ERP and the QT time on an electrocardiogram (═ECG). The QT time is likewise a measurement of the repolarization in the heart. Prolongations of both the ERP and the QT time, respectively, which are due to the substances were independently interpreted as indications of the risk of the occurrence of undesirable torsade-de-pointes arrhythmias. Furthermore, the QRS interval also was determined in each case from the ECG as a measurement of the ventricular rate of spread of stimulus. Even a prolongation of the QRS interval caused by a test substance is connected with an increased risk of undesirable pro-arrhythmic side-effects. Therefore in this test model the lack of an ERP and QT time prolongation signifies a low risk, but the occurrence of a relevant ERP and QT prolongation on the other hand signifies an elevated risk of undesirable pro-arrhythmic effects. Also the lack of a prolongation of the QRS interval which is due to the substances due to the substances of Formula I investigated indicates a low risk of undesirable pro-arrhythmic side-effects, since lack of QRS prolongation indicates an undisturbed spread of stimulus in the ventricle. Conversely, a QRS prolongation, which is typically triggered by Class I antiarrhythmic drugs indicates slowing of the conduction rate and may promote the occurrence of ventricular tachycardias to ventricular fibrillation.
Male guinea pigs (Dunkin-Hartley from Charles River) were anaesthetized (ketamine 50 mg/kg, xylazine 10 mg/kg) and each of them was provided with a venous access via one jugular vein for administration of compounds of Formula I or a vehicle. A bipolar stimulation catheter was fed into the right ventricle of the guinea pigs via the other jugular vein (stimulation frequency 5 Hz). The arterial blood pressure was measured by a catheter located in the carotid artery which was connected to a Statham pressure transducer. The ECG was recorded via needle electrodes. The measured data were digitized via an analog/digital converter, recorded on a computer with suitable software (Ponemah Physiology Platform from Gould, USA) and printed out in parallel on a multichannel printer. After an equilibration period of 45 min., increasing doses of the compounds of Formula I or of the vehicle were administered intravenously (=i.v.) to the guinea pigs at 12-minute intervals. Before the first administration and in each case one minute after administration of increasing doses (0.1−max. 30 μmole/kg) of the substances of Formula I, the effective refractory period was measured. For this, after five normal stimuli in each case an additional pulse was applied and the elapsed time thereof from the preceding pulse was increased until a heart action was triggered. The observed time interval corresponds to the ERP of the ventricular myocardium.
In order to detect possible effects of the test substances on the blood pressure, in the same test model after each administration of substance the systolic and diastolic blood pressure was determined and compared with the previous blood-pressure level. The parameters were recorded automatically 1 and 8 min. after each administration of substance.
Only statistically significant effects were listed, with a t-test with a significance limit of P<0.05 being used for the statistical testing.

T1 sequence (P22460 whole entry): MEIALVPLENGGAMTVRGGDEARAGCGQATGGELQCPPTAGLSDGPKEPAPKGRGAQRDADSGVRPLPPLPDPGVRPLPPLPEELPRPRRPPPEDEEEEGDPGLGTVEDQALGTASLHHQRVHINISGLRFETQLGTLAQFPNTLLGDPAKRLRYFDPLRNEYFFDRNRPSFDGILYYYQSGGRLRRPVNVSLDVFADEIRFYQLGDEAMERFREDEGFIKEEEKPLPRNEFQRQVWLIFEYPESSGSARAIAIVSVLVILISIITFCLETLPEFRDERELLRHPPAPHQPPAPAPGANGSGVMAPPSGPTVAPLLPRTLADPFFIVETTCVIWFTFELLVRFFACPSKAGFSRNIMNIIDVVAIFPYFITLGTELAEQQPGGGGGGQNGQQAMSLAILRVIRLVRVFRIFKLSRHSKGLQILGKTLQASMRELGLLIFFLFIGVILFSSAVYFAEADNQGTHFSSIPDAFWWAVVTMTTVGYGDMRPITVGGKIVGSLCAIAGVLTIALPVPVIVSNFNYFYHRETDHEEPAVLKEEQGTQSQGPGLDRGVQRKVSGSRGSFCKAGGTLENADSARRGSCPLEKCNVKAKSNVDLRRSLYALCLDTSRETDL

In the case of `CCc1ccc(S(=O)(=O)N(CC(C)(C)C)[C@@H]2c3cc(CC(=O)NCc4ccccc4)ccc3OC(C)(C)[C@H]2O)cc1` [Example 7], the IC50 at Kv 1.5-potassium channel was 1500 nM. For the same compound, in the data set with ventricle of guinea pigs, the QRS entry is on record as “n.s”, the QT entry is given as “n.s”, the “syst. blood pressure (change)” value was −15.3 mm Hg and the ERP is -8.2 ms.

On to `CCc1ccc(S(=O)(=O)N[C@@H]2c3cc(CC(=O)N[C@H]4CCCc5ccccc54)ccc3OC(C)(C)[C@H]2O)cc1` [Example 9], for which the IC50 on Kv 1.5-potassium channel worked out at 2900 nM.

`CCc1ccc(S(=O)(=O)N(CC(C)(C)C)C2c3cc(CC(=O)NCCc4ccccc4)ccc3OC(C)(C)C2O)cc1` (stereo not drawn) [Example 10]: on Kv 1.5-potassium channel, the IC50 worked out at 1600 nM. In addition, in the data set on ventricle of guinea pigs, the QRS result was “n.s”, the QT entry was “n.s”, the “syst. blood pressure (change)” value is −15.9 mm Hg and the ERP is -8.0 ms.

For the compound `CCc1ccc(S(=O)(=O)N(CC(C)(C)C)[C@H]2c3cc(CC(=O)NCc4ccccc4)ccc3OC(C)(C)[C@@H]2O)cc1` [Example 8], the IC50 at Kv 1.5-potassium channel was 500 nM. In addition, in the data set on ventricle of guinea pigs, the QRS entry is listed as “n.s”, the QT result is “n.s”, the “syst. blood pressure (change)” value was −10.7 mm Hg and the ERP entry is on record as “n.s”.

Regarding `CC1(C)Oc2ccc(CC(=O)NC3CCCc4ccccc43)cc2C(NS(=O)(=O)c2cccc(F)c2)C1O` (mixture of isomers) [Example 13], the IC50 at Kv 1.5-potassium channel was determined as 6500 nM. Also, in the data set with ventricle of guinea pigs, the QRS result is given as “n.s”, the QT entry is on record as “n.s”, the “syst. blood pressure (change)” value is reported as “n.s” and the ERP entry is recorded as “n.s”.

Regarding `CCc1ccc(S(=O)(=O)NC2c3cc(CC(=O)N4CCN(c5ccccc5)CC4)ccc3OC(C)(C)C2O)cc1` (stereo not drawn) [Example 16], the IC50 at Kv 1.5-potassium channel stood at 6300 nM. For the same compound, in the data set on ventricle of guinea pigs, the QRS entry is on record as “n.s”, the QT entry is reported as “n.s”, the “syst. blood pressure (change)” value is −8.6 mm Hg and the ERP is -7.5 ms.

As for `CCc1ccc(S(=O)(=O)N(CC(C)(C)C)C2c3cc(CC(=O)NCc4ccccc4)ccc3OC(C)(C)C2O)cc1` (stereo not drawn) [Example 4, N-benzyl-2-{4-[[(4-ethylphenyl)sulfonyl](neopentyl)amino]-3-hydroxy-2,2-dimethyl-3,4-dihydro-2H-chromen-6-yl}acetamide], on Kv 1.5-potassium channel, the IC50 worked out at 1600 nM. Besides, in the data set on ventricle of guinea pigs, the QRS entry is listed as “n.s”, the QT result is on record as “n.s”, the “syst. blood pressure (change)” value is listed as “n.s” and the ERP result is on record as “n.s”.

Take `CCc1ccc(S(=O)(=O)N[C@@H]2c3cc(CC(=O)N[C@@H]4CCCc5ccccc54)ccc3OC(C)(C)[C@H]2O)cc1` [Example 2, 2-((3S,4R)-4-{[(4-ethylphenyl)sulfonyl]amino}-3-hydroxy-2,2-dimethyl-3,4-dihydro-2H-chromen-6-yl)-N-[(1R)-1,2,3,4-tetrahydronaphth-1-yl]acetamide]: the IC50 at Kv 1.5-potassium channel worked out at 2000 nM. Also, in the data set with ventricle of guinea pigs, the QRS entry is recorded as “n.s”, the QT result is listed as “n.s”, the “syst. blood pressure (change)” value is on record as “n.s” and the ERP entry was “n.s”.

The values are drawn from patent US7368582B2, “Amidomethyl-substituted 2-(4-sulfonylamino)-3-hydroxy-3,4-dihydro-2H-chromen-6-yl compounds, a process and intermediates for their production, and pharmaceutical compositions containing them” (Solvay Pharmaceuticals GmbH, priority 2003, dated 2008).
